This is an account of results in patent US11591341B2 (ALIGOS THERAPEUTICS, INC., priority 2019, dated 2023).

The assay relates to HBV. The assay can be described thus: HBV-DNA Antiviral Assay Using HepG2.117 Cells (intracellular HBV DNA by qPCR). It counts as cell-based, hepatitis B virus (genotype D). To be noted: Hepatitis B virus, HepG2.117. The method in brief: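 Endpoint: qPCR copy number of intracellular HBV DNA after 3-day compound exposure, with inhibition set relative to the 2% DMSO control. The cells were doxycycline-free HepG2.117 carrying a Tet-off genotype D genome, dosed at nine 4-fold dilutions. A duplicate plate gave ATP-based viability (CC50).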
(Quantitative PCR measures a nucleic acid by following its amplification.)

For orientation: EC50 means the concentration at which the effect is half-maximal. Turning to `O=C(NCc1ccccc1-c1cnccn1)c1c2n(c(=O)n1-c1ccc(OCC(F)(F)F)cc1)CCN(C(=O)c1ccc(Br)c(Cl)c1)C2` [Example 402, 7-(4-bromo-3-chloro-benzoyl)-3-oxo-N-[(2-pyrazin-2-ylphenyl)methyl]-2-[4-(2,2,2-trifluoroethoxy)phenyl]-6,8-dihydro-5H-imidazo[1,5-a]pyrazine-1-carboxamide], the EC50 was below 0.1 µM.

Turning to `COc1ccc(-n2c(C(=O)NCc3ccccc3OC)c3n(c2=O)CCN(C(=O)c2ccc(Br)c(Cl)c2)C3)cc1` [Example 114, 7-(4-bromo-3-chloro-benzoyl)-2-(4-methoxyphenyl)-N-[(2-methoxyphenyl)methyl]-3-oxo-6,8-dihydro-5H-imidazo[1,5-a]pyrazine-1-carboxamide], the EC50 was 0.1 to 0.5 µM.

The molecule `COc1ccc(-n2c(C(=O)NCc3ccccc3)c3n(c2=O)CCN(C(=O)c2ccc(Cl)c(Cl)c2)C3)c(Cl)c1` [Example 59, N-benzyl-2-(2-chloro-4-methoxy-phenyl)-7-(3,4-dichlorobenzoyl)-3-oxo-6,8-dihydro-5H-imidazo[1,5-a]pyrazine-1-carboxamide] returned an EC50 of 0.5 to 5 µM.

For the molecule `COc1ccc(-n2c(C(=O)NCc3ccccc3)c3n(c2=O)CCN(C(=O)c2ccc(Cl)c(Cl)c2)C3)cc1` [Example 54, N-benzyl-7-(3,4-dichlorobenzoyl)-2-(4-methoxyphenyl)-3-oxo-6,8-dihydro-5H-imidazo[1,5-a]pyrazine-1-carboxamide], the EC50 fell in the range of 0.5 to 5 µM.

On to `COc1ccc(-n2c(C(=O)NCc3ccccc3)c3n(c2=O)CCN(C(=O)c2ccc(Cl)c(Cl)c2)C3)c(C#N)c1` [Example 80, N-benzyl-2-(2-cyano-4-methoxy-phenyl)-7-(3,4-dichlorobenzoyl)-3-oxo-6,8-dihydro-5H-imidazo[1,5-a]pyrazine-1-carboxamide], for which the EC50 is above 5 µM.

Regarding `CC(C)Oc1ccc(-n2c(C(=O)NCc3ccccc3)c3n(c2=O)CCN(C(=O)c2cc4c(Cl)cccc4s2)C3)cc1` [Example 224, N-benzyl-7-(4-chlorobenzothiophene-2-carbonyl)-2-(4-isopropoxyphenyl)-3-oxo-6,8-dihydro-5H-imidazo[1,5-a]pyrazine-1-carboxamide], the EC50 is above 5 µM.

Take `C[C@H](NC(=O)c1c2n(c(=O)n1-c1ccc(OCC(F)(F)F)cc1)CCN(C(=O)c1ccc(Br)c(Cl)c1)C2)c1cccc2nccnc12` (stereo in doubt) [Example 384, 7-(4-bromo-3-chloro-benzoyl)-3-oxo-N-[rac-(1S)-1-quinoxalin-5-ylethyl]-2-[4-(2,2,2-trifluoroethoxy)phenyl]-6,8-dihydro-5H-imidazo[1,5-a]pyrazine-1-carboxamide]: the EC50 lay within 0.1 to 0.5 µM.

In the case of `N#Cc1ccc(-n2c(C(=O)NCc3ccccc3)c3n(c2=O)CCN(C(=O)c2ccc(Br)c(Cl)c2)C3)c(Cl)c1` [Example 351, N-benzyl-7-(4-bromo-3-chloro-benzoyl)-2-(2-chloro-4-cyano-phenyl)-3-oxo-6,8-dihydro-5H-imidazo[1,5-a]pyrazine-1-carboxamide], the EC50 is above 5 µM.

`COc1ccc(-n2c(C(=O)NCc3ccccc3)c3n(c2=O)CCN(C(=O)c2ccc(Cl)c(Cl)c2)C3)cc1C` [Example 124, N-benzyl-7-(3,4-dichlorobenzoyl)-2-(4-methoxy-3-methyl-phenyl)-3-oxo-6,8-dihydro-5H-imidazo[1,5-a]pyrazine-1-carboxamide] returned an EC50 of 0.5 to 5 µM.

On to `CS(=O)(=O)c1cccc(-n2c(C(=O)NCc3ccccc3)c3n(c2=O)CCN(C(=O)c2ccc(Br)c(Cl)c2)C3)c1` [Example 46, N-benzyl-7-(4-bromo-3-chloro-benzoyl)-2-(3-methylsulfonylphenyl)-3-oxo-6,8-dihydro-5H-imidazo[1,5-a]pyrazine-1-carboxamide], for which the EC50 is above 5 µM.

For `C[C@@H]1Cn2c(c(C(=O)N[C@H](C)c3ccccc3F)n(-c3ccc(OC4CC4)cc3)c2=O)CN1C(=O)c1ccc(Br)c(Cl)c1` (mixture of isomers) [Example 335, (6RS)-7-(4-bromo-3-chloro-benzoyl)-2-[4-(cyclopropoxy)phenyl]-N-[(1S)-1-(2-fluorophenyl)ethyl]-6-methyl-3-oxo-6,8-dihydro-5H-imidazo[1,5-a]pyrazine-1-carboxamide], the EC50 was in the range of 0.5 to 5 µM.

Molecule `COc1ccc(-n2c(C(=O)NCc3ccccc3)c3n(c2=O)C[C@H](C2CC2)N(C(=O)c2ccc(Br)c(Cl)c2)C3)cc1` (racemic) [Example 279, rac-(6S)-N-benzyl-7-(4-bromo-3-chloro-benzoyl)-6-cyclopropyl-2-(4-methoxyphenyl)-3-oxo-6,8-dihydro-5H-imidazo[1,5-a]pyrazine-1-carboxamide] displayed an EC50 of 0.1 to 0.5 µM.

`CC(C)Oc1ccc(-n2c(C(=O)NCc3ccc(=O)n(C)c3)c3n(c2=O)CCN(C(=O)c2ccc(Br)c(Cl)c2)C3)cc1` [Example 232, 7-(4-bromo-3-chloro-benzoyl)-2-(4-isopropoxyphenyl)-N-[(1-methyl-6-oxo-3-pyridyl)methyl]-3-oxo-6,8-dihydro-5H-imidazo[1,5-a]pyrazine-1-carboxamide] returned an EC50 above 5 µM.

In the case of `COC1CCC(n2c(C(=O)N[C@@H](C)c3ccccc3)c3n(c2=O)CCN(C(=O)c2ccc(Br)c(Cl)c2)C3)CC1` (mixture of isomers) [Example 247, 7-(4-bromo-3-chloro-benzoyl)-2-(4-methoxycyclohexyl)-3-oxo-N-[rac-(1S)-1-phenylethyl]-6,8-dihydro-5H-imidazo[1,5-a]pyrazine-1-carboxamide], the EC50 is above 5 µM.

`O=C(NCc1ccccc1)c1c2n(c(=O)n1-c1ccc3[nH]ncc3c1)CCN(C(=O)c1ccc(Br)c(Cl)c1)C2` [Example 298, N-benzyl-7-(4-bromo-3-chloro-benzoyl)-2-(1H-indazol-5-yl)-3-oxo-6,8-dihydro-5H-imidazo[1,5-a]pyrazine-1-carboxamide] gave a 50% effective concentration (EC50) of 0.5 to 5 µM.

Molecule `CC(NC(=O)c1c2n(c(=O)n1-c1ccc(OC3CC3)cc1)CCN(C(=O)c1ccc(Br)c(Cl)c1)C2)c1ccc(OCC(N)=O)cc1-n1cccn1` (racemic) [Example 379, 7-(4-bromo-3-chloro-benzoyl)-2-[4-(cyclopropoxy)phenyl]-3-oxo-N-[rac-(1R)-1-[4-(2-amino-2-oxo-ethoxy)-2-pyrazol-1-yl-phenyl]ethyl]-6,8-dihydro-5H-imidazo[1,5-a]pyrazine-1-carboxamide] gave an EC50 above 5 µM.

`COc1ccc(-n2c(C(=O)NCc3ccc4c(c3)OCO4)c3n(c2=O)CCN(C(=O)c2ccc(Br)c(Cl)c2)C3)cc1` [Example 182, N-(1,3-benzodioxol-5-ylmethyl)-7-(4-bromo-3-chloro-benzoyl)-2-(4-methoxyphenyl)-3-oxo-6,8-dihydro-5H-imidazo[1,5-a]pyrazine-1-carboxamide] had an EC50 of 0.1 to 0.5 µM.

The molecule `O=C(c1ccc(Br)c(Cl)c1)N1CCn2c(c3n(c2=O)CCCN(CC2CC2)C3=O)C1` [Example 133, 4-(4-bromo-3-chloro-benzoyl)-13-(cyclopropylmethyl)-4,7,9,13-tetrazatricyclo[7.5.0.0^2,7]tetradec-1-ene-8.14-dione] showed an EC50 above 5 µM.

Consider `COc1ccc(-n2c(C(=O)N[C@H](C)c3ccccc3)c3n(c2=O)CCN(C(=O)c2ccc(Cl)c(Cl)c2)C3)cc1` (stereo in doubt) [Example 68, 7-(3,4-dichlorobenzoyl)-2-(4-methoxyphenyl)-3-oxo-N-[rac-(1R)-1-phenylethyl]-6,8-dihydro-5H-imidazo[1,5-a]pyrazine-1-carboxamide], for which the EC50 was in the range of 0.5 to 5 µM.

With `COc1ccc(-n2c(C(=O)NCc3ccc(=O)[nH]c3)c3n(c2=O)CCN(C(=O)c2ccc(Br)c(Cl)c2)C3)cc1` [Example 192, 7-(4-bromo-3-chloro-benzoyl)-2-(4-methoxyphenyl)-3-oxo-N-[(6-oxo-1H-pyridin-3-yl)methyl]-6,8-dihydro-5H-imidazo[1,5-a]pyrazine-1-carboxamide], the EC50 is above 5 µM.

In turn, `C[C@H]1Cn2c(c(C(=O)NCc3ccccc3-n3cncn3)n(-c3ccc(OC4CC4)cc3)c2=O)CN1C(=O)c1ccc(Br)c(Cl)c1` (stereo in doubt) [Example 448, rac-(6S)-7-(4-bromo-3-chloro-benzoyl)-2-[4-(cyclopropoxy)phenyl]-6-methyl-3-oxo-N-[[2-(1,2,4-triazol-1-yl)phenyl]methyl]-6,8-dihydro-5H-imidazo[1,5-a]pyrazine-1-carboxamide] gave an EC50 below 0.1 µM.

`O=C(NCc1ccccc1)c1c2n(c(=O)n1-c1ccc(-c3ncc[nH]3)cc1)CCN(C(=O)c1ccc(Br)c(Cl)c1)C2` [Example 430, N-benzyl-7-(4-bromo-3-chloro-benozyl)-2-[4-(1H-imidazol-2-yl)phenyl]-3-oxo-6,8-dihydro-5H-imidazo[1,5-a]pyrazine-1-carboxamide] came in with an EC50 of 0.5 to 5 µM.

Consider `COc1ccc(-n2c(C(=O)N[C@H](C)c3ccc(Br)cc3)c3n(c2=O)CCN(C(=O)c2ccc(Br)c(Cl)c2)C3)cc1` (racemic) [Example 145, 7-(4-bromo-3-chloro-benzoyl)-2-(4-methoxyphenyl)-3-oxo-N-[rac-(1R)-1-(4-bromophenyl)ethyl]-6,8-dihydro-5H-imidazo[1,5-a]pyrazine-1-carboxamide], for which the EC50 lay within 0.1 to 0.5 µM.

`Cc1nc2c(CNC(=O)c3c4n(c(=O)n3-c3ccc(OCC(F)(F)F)cc3)CCN(C(=O)c3ccc(Br)c(Cl)c3)C4)cccc2o1` [Example 411, 7-(4-bromo-3-chloro-benzoyl)-N-[(2-methyl-1,3-benzoxazol-4-yl)methyl]-3-oxo-2-[4-(2,2,2-trifluoroethoxy)phenyl]-6,8-dihydro-5H-imidazo[1,5-a]pyrazine-1-carboxamide] came in with an EC50 of 0.1 to 0.5 µM.

Molecule `COc1ccc(-n2c(C(=O)NCc3cccc(F)c3)c3n(c2=O)CCN(C(=O)c2ccc(Br)c(Cl)c2)C3)cc1` [Example 125, 7-(4-bromo-3-chloro-benzoyl)-N-[(3-fluorophenyl)methyl]-2-(4-methoxyphenyl)-3-oxo-6,8-dihydro-5H-imidazo[1,5-a]pyrazine-1-carboxamide] had an EC50 of 0.1 to 0.5 µM.
